Source: patent US7074789B2, “Kinase inhibitors” (Amgen Inc., priority 1999, dated 2006)

Columns and labels:
Assay type in all cases: biochemical
PDGFRB = target: T1, PDGFRB (Homo sapiens, UniProt P09619); assay: Kinase inhibition assay (33P transfer), PDGFRB; details: read-out: PDGFRB-1
T1 construct: Kinases are expressed as either kinase domains or full length constructs; made in house

ErbB2 = target: T2, ErbB2 (Homo sapiens, UniProt P04626); assay: Kinase inhibition assay (33P transfer), ErbB2; details: read-out: ErbB2-2
T2 construct: Kinases are expressed as either kinase domains or full length constructs; made in house
How it was run: (§1)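 GST/His-fusion kinases, E. coli or High Five expressed, affinity purified; 33P-ATP, plate-coated poly(Glu,Tyr) 4:1 or poly(Arg,Ser) 3:1; 0.5% H3PO4 wash, scintillant, LSC.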

Itk = target: T3, Itk (Homo sapiens, UniProt Q08881); assay: Kinase inhibition assay (33P transfer), Itk; details: Table 3, class symbols; read-out: Itk-1
T3 construct: Kinases are expressed as either kinase domains or full length constructs; made in house
T3 sequence (Q08881 1-620): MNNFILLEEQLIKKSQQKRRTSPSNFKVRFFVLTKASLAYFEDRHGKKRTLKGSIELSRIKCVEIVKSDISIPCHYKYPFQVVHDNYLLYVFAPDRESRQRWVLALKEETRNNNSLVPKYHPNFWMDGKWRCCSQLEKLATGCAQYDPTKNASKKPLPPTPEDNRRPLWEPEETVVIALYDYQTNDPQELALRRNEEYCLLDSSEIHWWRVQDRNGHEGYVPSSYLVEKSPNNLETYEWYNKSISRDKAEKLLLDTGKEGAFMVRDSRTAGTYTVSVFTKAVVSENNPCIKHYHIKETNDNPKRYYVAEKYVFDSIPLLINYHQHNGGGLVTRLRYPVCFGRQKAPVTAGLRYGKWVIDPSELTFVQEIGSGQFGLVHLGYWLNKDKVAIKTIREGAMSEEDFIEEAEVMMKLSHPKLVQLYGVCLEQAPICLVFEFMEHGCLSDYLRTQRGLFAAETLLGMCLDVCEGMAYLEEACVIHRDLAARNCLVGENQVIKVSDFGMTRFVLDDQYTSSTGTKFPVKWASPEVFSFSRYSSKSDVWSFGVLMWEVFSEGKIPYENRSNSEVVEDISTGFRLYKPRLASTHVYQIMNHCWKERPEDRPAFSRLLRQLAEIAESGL
How it was run: as §1

IGFR-1 = target: T4, IGFR-1 (Homo sapiens, UniProt P08069); assay: Kinase inhibition assay (33P transfer), IGFR-1; details: Table 2, class symbols A-E
T4 construct: Kinases are expressed as either kinase domains or full length constructs; made in house

EGFR = target: T5, EGFR (Homo sapiens, UniProt P00533); assay: Kinase inhibition assay (33P transfer), EGFR; details: Table 2, class symbols A-E; read-out: EGFR-1
T5 construct: Kinases are expressed as either kinase domains or full length constructs; made in house
T5 sequence (P00533 25-1210, species assumed): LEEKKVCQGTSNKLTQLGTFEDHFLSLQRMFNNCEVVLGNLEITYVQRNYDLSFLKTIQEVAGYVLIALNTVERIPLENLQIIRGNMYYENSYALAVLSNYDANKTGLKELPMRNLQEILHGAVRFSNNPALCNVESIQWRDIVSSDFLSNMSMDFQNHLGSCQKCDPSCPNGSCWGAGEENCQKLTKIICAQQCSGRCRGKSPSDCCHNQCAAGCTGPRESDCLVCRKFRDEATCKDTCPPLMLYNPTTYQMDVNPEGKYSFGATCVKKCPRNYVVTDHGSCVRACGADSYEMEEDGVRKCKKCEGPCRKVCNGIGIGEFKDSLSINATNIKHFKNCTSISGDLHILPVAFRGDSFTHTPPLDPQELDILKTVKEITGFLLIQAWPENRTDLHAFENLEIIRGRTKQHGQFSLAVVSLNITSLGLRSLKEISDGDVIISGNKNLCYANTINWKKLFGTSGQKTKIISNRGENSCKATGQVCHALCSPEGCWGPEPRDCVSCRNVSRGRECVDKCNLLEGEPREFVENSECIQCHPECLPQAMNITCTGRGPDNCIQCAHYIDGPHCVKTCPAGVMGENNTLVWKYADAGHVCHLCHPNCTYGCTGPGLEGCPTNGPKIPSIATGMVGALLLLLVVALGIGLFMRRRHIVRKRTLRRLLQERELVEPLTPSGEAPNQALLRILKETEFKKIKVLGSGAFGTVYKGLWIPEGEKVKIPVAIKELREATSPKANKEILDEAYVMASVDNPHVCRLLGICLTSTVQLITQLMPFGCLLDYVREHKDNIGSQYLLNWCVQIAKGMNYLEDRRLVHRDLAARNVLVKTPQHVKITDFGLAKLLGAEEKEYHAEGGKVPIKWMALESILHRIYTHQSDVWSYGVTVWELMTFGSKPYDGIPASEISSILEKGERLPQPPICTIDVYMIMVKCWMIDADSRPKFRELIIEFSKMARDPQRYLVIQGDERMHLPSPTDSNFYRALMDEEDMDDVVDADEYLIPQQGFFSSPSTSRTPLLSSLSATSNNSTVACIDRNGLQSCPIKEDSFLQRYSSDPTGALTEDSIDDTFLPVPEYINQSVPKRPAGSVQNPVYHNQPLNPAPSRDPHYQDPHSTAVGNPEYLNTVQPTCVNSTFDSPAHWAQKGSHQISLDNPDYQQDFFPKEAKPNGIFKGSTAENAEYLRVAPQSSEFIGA
How it was run: as §1

Lck = target: T6, Lck (Homo sapiens, UniProt P06239); assay: Kinase inhibition assay (33P transfer), Lck; details: Table 3, class symbols; read-out: Lck-1
T6 construct: Kinases are expressed as either kinase domains or full length constructs; made in house
T6 sequence (P06239 whole entry, species assumed, the tested form may be a part): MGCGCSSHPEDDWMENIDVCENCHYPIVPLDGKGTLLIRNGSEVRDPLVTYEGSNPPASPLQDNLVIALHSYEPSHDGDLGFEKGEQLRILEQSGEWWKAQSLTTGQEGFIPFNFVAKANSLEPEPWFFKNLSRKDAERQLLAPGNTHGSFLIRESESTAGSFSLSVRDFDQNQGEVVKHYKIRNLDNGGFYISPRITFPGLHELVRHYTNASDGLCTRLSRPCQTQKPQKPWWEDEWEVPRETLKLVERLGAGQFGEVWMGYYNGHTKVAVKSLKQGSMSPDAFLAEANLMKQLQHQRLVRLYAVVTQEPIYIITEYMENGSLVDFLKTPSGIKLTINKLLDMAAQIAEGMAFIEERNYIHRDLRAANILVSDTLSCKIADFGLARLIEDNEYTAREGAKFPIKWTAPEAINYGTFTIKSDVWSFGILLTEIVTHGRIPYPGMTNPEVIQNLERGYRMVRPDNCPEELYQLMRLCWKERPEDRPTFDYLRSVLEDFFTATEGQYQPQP
How it was run: (§2)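 Each kinase, expressed as a GST- or polyHis-tagged domain or full-length protein, phosphorylated plate-attached poly(Glu,Tyr) 4:1 or poly(Arg,Ser) 3:1 using 33P-ATP. Bound radioactivity was measured by scintillation after a 0.5% phosphoric acid wash.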

Kdr = target: T7, Kdr (Homo sapiens, UniProt P35968); assay: Kinase inhibition assay (33P transfer), Kdr; details: Table 3, class symbols; read-out: KDR-1
T7 construct: Kinases are expressed as either kinase domains or full length constructs; made in house
T7 sequence (P35968 20-1356, species assumed): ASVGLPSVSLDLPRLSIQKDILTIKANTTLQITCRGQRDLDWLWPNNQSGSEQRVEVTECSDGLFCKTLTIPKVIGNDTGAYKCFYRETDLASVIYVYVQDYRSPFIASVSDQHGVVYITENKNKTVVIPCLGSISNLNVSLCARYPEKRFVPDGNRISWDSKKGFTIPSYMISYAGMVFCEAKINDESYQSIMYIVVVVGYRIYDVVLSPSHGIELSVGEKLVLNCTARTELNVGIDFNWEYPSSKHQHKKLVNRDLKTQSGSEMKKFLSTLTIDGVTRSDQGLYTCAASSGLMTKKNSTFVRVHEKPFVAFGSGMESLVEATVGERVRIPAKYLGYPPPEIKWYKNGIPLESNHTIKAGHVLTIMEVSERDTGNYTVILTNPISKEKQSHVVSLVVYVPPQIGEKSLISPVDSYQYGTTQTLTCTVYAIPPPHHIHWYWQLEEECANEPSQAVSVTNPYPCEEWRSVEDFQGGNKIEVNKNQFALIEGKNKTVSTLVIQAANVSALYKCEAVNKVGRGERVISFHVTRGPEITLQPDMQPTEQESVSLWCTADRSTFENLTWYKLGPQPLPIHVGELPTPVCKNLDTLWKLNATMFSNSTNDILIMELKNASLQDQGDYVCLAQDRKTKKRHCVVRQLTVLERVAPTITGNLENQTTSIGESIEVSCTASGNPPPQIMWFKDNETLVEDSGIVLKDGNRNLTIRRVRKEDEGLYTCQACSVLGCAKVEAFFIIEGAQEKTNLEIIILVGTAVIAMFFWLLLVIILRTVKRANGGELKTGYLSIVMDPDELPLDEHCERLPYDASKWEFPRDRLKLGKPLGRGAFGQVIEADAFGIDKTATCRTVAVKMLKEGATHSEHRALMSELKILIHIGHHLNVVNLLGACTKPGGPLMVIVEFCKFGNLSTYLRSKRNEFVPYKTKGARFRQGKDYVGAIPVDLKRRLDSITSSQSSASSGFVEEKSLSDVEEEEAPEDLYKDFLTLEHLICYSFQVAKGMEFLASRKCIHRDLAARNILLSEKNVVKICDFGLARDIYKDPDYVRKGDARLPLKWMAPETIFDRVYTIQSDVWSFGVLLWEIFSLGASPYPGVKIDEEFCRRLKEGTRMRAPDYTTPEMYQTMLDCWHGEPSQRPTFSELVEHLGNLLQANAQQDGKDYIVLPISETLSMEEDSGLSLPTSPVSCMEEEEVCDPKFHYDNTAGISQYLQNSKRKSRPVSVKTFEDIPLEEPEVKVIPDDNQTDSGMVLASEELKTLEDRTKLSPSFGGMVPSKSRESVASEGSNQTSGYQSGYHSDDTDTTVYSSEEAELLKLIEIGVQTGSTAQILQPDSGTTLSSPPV
How it was run: as §2

c-Met = target: T8, c-Met (Homo sapiens, UniProt P08581); assay: Kinase inhibition assay (33P transfer), c-Met; details: Table 2, class symbols A-E; read-out: Met-1
T8 construct: Kinases are expressed as either kinase domains or full length constructs; made in house
How it was run: as §1

AKT = target: T9, AKT (Homo sapiens, UniProt Q9Y243); assay: Kinase inhibition assay (33P transfer), AKT; details: Table 2, class symbols A-E; read-out: AKT3-1
T9 construct: Kinases are expressed as either kinase domains or full length constructs; made in house
T9 sequence (Q9Y243 whole entry, the tested form may be a part): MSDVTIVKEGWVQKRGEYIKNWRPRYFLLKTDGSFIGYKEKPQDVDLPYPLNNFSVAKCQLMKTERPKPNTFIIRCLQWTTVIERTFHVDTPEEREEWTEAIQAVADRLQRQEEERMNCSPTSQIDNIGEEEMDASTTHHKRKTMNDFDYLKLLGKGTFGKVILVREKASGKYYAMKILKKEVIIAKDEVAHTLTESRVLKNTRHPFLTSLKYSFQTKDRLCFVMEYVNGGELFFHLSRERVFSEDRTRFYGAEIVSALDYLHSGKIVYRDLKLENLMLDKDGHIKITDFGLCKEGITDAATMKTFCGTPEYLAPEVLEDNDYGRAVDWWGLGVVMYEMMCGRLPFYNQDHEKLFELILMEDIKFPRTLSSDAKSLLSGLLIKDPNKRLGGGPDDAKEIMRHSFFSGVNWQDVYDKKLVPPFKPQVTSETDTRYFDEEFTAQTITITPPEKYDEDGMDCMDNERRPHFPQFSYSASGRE
How it was run: as §2

Zap-70 = target: T10, Zap-70 (Homo sapiens, UniProt P43403); assay: Kinase inhibition assay (33P transfer), Zap-70; details: Table 3, class symbols; read-out: Zap-1
T10 construct: Kinases are expressed as either kinase domains or full length constructs; made in house
T10 sequence (P43403 1-619): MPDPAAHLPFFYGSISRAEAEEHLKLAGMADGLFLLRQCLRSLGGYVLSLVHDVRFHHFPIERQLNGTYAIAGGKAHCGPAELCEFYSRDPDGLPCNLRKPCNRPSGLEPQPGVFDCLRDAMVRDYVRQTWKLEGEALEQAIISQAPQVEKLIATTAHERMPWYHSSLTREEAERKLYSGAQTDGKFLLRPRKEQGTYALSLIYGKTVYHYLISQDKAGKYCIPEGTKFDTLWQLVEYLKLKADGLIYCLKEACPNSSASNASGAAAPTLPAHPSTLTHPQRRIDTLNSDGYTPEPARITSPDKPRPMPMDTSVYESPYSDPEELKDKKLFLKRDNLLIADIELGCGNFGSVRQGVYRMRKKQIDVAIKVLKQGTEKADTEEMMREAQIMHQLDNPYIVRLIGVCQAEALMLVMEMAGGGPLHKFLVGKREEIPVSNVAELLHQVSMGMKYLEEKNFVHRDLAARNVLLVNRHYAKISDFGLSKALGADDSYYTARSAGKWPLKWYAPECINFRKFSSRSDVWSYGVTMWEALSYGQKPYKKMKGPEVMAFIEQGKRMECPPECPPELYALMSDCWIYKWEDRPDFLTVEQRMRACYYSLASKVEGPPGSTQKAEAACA
How it was run: as §2

T1 sequence (P09619 33-1106, species assumed): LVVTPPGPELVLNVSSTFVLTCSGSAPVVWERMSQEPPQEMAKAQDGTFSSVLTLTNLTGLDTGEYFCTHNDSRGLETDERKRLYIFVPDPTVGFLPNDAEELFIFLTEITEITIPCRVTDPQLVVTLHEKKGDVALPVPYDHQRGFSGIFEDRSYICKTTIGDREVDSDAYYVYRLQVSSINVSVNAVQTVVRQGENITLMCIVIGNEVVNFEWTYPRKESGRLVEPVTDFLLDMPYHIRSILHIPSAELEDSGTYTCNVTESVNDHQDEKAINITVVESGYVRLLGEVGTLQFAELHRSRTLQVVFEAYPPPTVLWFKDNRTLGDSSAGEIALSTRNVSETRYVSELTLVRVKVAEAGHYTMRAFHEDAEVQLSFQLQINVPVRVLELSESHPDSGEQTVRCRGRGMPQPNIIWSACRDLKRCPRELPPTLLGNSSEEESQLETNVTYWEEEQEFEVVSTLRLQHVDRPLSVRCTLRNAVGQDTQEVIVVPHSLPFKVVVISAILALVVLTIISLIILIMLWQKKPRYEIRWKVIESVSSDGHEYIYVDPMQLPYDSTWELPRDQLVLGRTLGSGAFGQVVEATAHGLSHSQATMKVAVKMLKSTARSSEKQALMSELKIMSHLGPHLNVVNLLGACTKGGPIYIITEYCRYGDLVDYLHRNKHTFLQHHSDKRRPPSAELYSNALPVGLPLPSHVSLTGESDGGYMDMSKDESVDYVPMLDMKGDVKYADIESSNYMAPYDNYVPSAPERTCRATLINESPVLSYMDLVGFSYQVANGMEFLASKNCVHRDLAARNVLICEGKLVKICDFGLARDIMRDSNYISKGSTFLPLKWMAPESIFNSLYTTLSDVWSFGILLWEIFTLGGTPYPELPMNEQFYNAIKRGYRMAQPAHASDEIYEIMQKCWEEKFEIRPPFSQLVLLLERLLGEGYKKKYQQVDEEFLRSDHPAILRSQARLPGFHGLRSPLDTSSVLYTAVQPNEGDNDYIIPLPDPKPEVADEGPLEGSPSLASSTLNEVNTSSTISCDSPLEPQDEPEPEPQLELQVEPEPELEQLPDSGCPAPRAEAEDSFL

Structure (SMILES) | IC50 (PDGFRB) [µM] | IC50 (ErbB2) [µM] | IC50 (Itk) [µM] | IC50 (IGFR-1) [µM] | IC50 (EGFR) [µM] | IC50 (Lck) [µM] | IC50 (Kdr) [µM] | IC50 (c-Met) [µM] | IC50 (AKT) [µM] | IC50 (Zap-70) [µM]
Cc1ccc2c(c1)CCCN2c1ncnc(Nc2ccc(F)c(F)c2)n1 [Compound 893] | 1.13 to 6.79 | > 12.7 | > 12.7 | > 12.7 | 1.13 to 6.79 | > 12.7 | > 12.7 | 1.13 to 6.79 | 1.13 to 6.79 | > 12.7
c1coc(-c2cc(Nc3ncnc(Nc4nc[nH]n4)n3)n[nH]2)c1 [Compound 889] | 1.29 to 7.73 | 1.29 to 7.73 | 1.29 to 7.73 | 1.29 to 7.73 | 1.29 to 7.73 | > 14.5 | 1.29 to 7.73 | 1.29 to 7.73 | > 14.5 | > 14.5
COc1ccc(Nc2ncnc(Nc3ccc4c(cnn4Cc4ccccc4)c3)n2)cc1 [Compound 905] | 0.945 to 5.67 | 0.945 to 5.67 | 0.945 to 5.67 | > 10.6 | < 0.945 | > 10.6 | 0.945 to 5.67 | 0.945 to 5.67 | > 10.6 | > 10.6
COc1cccc(Nc2ncccc2-c2ncnc(Nc3cc(OC)c(OC)c(OC)c3)n2)c1 [Compound 829] | 0.869 to 5.21 | 0.869 to 5.21 | > 9.77 | > 9.77 | 7.6 to 9.77 | > 9.77 | < 0.869 | > 9.77 | > 9.77 | > 9.77
c1ccc(CNc2ncccc2-c2ncnc(Nc3cccc(Cn4ccnn4)c3)n2)cc1 [Compound 1101] | < 0.918 | > 10.3 | 5.51 to 8.04 | > 10.3 | 0.918 to 5.51 | 5.51 to 8.04 | < 0.918 | 5.51 to 8.04 | > 10.3 | > 10.3
COc1ccc(Nc2ncnc(Nc3ccc4ncsc4c3)n2)cc1OC [Compound 895] | < 1.05 | 6.31 to 9.2 | 1.05 to 6.31 | < 1.05 | 1.05 to 6.31 | 1.05 to 6.31 | 1.05 to 6.31 | > 11.8 | > 11.8 | > 11.8
COc1ccc(Nc2ncnc(Nc3cccc(C#N)c3)n2)cc1OC [Compound 897] | < 1.15 | > 12.9 | 6.89 to 10 | > 12.9 | < 1.15 | > 12.9 | > 12.9 | > 12.9 | > 12.9 | > 12.9
COc1ccc(Nc2ncnc(N(C)CCc3ccccn3)n2)cc1OC [Compound 869] | 1.09 to 6.55 | 9.55 to 12.3 | 6.55 to 9.55 | > 12.3 | 1.09 to 6.55 | > 12.3 | 9.55 to 12.3 | 9.55 to 12.3 | > 12.3 | > 12.3
c1ccc(-c2cc(Nc3ncnc(Nc4ccc5[nH]ncc5c4)n3)[nH]n2)cc1 [Compound 1013] | < 1.08 | 1.08 to 6.5 | 1.08 to 6.5 | < 1.08 | 1.08 to 6.5 | 1.08 to 6.5 | < 1.08 | 1.08 to 6.5 | 1.08 to 6.5 | 6.5 to 9.48
COC(=O)c1ccc(-c2cc(Nc3ncnc(Nc4cccc(S(=O)(=O)O)c4)n3)[nH]n2)cc1 [Compound 882] | 0.856 to 5.13 | 0.856 to 5.13 | 0.856 to 5.13 | 0.856 to 5.13 | 0.856 to 5.13 | 5.13 to 7.49 | 0.856 to 5.13 | 0.856 to 5.13 | 5.13 to 7.49 | > 9.63
c1ccc(CNc2nc3ccccc3n2-c2ncnc(Nc3cccc(Cn4ccnn4)c3)n2)cc1 [Compound 965] | < 0.843 | 0.843 to 5.06 | 5.06 to 7.38 | > 9.48 | < 0.843 | 0.843 to 5.06 | < 0.843 | > 9.48 | > 9.48 | > 9.48
COc1cc(Nc2ncnc(-c3cccnc3NCC(C)c3ccccc3)n2)cc(OC)c1OC (stereo not shown) [Compound 890] | 0.846 to 5.08 | > 9.52 | > 9.52 | > 9.52 | > 9.52 | > 9.52 | 7.41 to 9.52 | > 9.52 | > 9.52 | > 9.52
Fc1ccc(CNc2ncnc(Nc3cc(-c4ccco4)n[nH]3)n2)cc1 [Compound 996] | > 12.8 | > 12.8 | > 12.8 | 1.14 to 6.83 | 9.96 to 12.8 | > 12.8 | > 12.8 | > 12.8 | > 12.8 | > 12.8
COc1ccc(Nc2ncnc(NCC(=O)c3ccccc3)n2)cc1OC [Compound 857] |  | 6.57 to 9.58 | > 12.3 | > 12.3 | 6.57 to 9.58 | > 12.3 | > 12.3 | > 12.3 | > 12.3 | > 12.3
CCOc1ccc(Nc2ncnc(N(C)c3cccc(Cl)c3)n2)cc1OCC [Compound 640] |  | < 1 | > 11.3 | > 11.3 | < 1 | 1 to 6 | 1 to 6 | 1 to 6 | > 11.3 | > 11.3
COc1ccc(N(C)c2ncnc(Nc3ccc(OC)c(OC)c3)n2)cc1 [Compound 863] |  | 6.53 to 9.53 | > 12.2 | > 12.2 | < 1.09 | 1.09 to 6.53 | 1.09 to 6.53 | 1.09 to 6.53 | > 12.2 | > 12.2
COc1ccc(Nc2ncnc(N(C)C3CCN(C)CC3)n2)cc1OC [Compound 861] |  | 6.7 to 9.76 | > 12.6 | > 12.6 | > 12.6 | > 12.6 | > 12.6 | > 12.6 | > 12.6 | > 12.6
COc1ccc(Nc2ncnc(Nc3ccc4c(c3)C(=O)N(C)C4=O)n2)cc1OC [Compound 856] |  | 0.984 to 5.91 | > 11.1 | 5.91 to 8.61 | > 11.1 | > 11.1 | > 11.1 | > 11.1 | > 11.1 | > 11.1
Clc1cccc(Nc2ncnc(Nc3ccc4[nH]ncc4c3)n2)c1 [Compound 134] |  | 1.18 to 7.11 | < 1.18 | < 1.18 | < 1.18 | 1.18 to 7.11 | < 1.18 | < 1.18 | 1.18 to 7.11 | 1.18 to 7.11
COc1ccc(Nc2ncnc(NCc3ccc(C)c(Cl)c3)n2)cc1OC [Compound 793] | > 11.7 |  | > 11.7 | > 11.7 | > 11.7 | > 11.7 | > 11.7 | > 11.7 | > 11.7 | > 11.7
